In publication PMC5906549, “Cathelicidin-Derived Antimicrobial Peptides Inhibit Zika Virus Through Direct Inactivation and Interferon Pathway” (Frontiers in Immunology, 2018):
Peptide text beside a SMILES is read from it.

Experiments:
Assay type in all cases: cell-based, Zika virus
ZIKV strain MR766 [1] = assay: ZIKV virion levels in astrocyte supernatants, plaque-forming assay on Vero cells; conditions: human fetal astrocytes; peptide 0.4 to 10 µM pre-treatment; supernatants titrated on Vero cells
Protocol: (A) Human fetal astrocytes were treated with doses of the selected peptides ranging from 1 to 50 µM. After 24 h, the cultures were washed and treated with same doses of peptides in fresh medium for another 24 h. Cell viability was determined by a colorimetric MTS assay. Results shown are the averages ±SD of experiments performed in triplicate. Data were analyzed by nonlinear regression and assessed the EC50 for each of the antimicrobial peptides. (B–E) Astrocytes were treated with doses of antimicrobial peptides ranging from 0.4 to 10 µM for 2 h then infected with ZIKV at the MOI of 0.5. After 24 h, the cultures were washed and treated with same doses of antimicrobial peptides in fresh medium for another 24 h. At the experimental endpoint, intracellular ZIKV RNA (B) was determined through real-time RT-PCR in total cellular RNA. Data were normalized to GAPDH and presented as fold change (in log scale) compared with ZIKV group. Extracellular ZIKV RNA [(C), in log scale] was determined through real-time RT-PCR using total RNA isolated from cell-free supernatants. ZIKV virion levels (in log scale) were determined by adding cell-free culture supernatants to Vero cells and overlaid with Agar gel in viral PFA (D). Viral plaques were manually counted and calculated as PFU/mL (E). * p < 0.05, ** p < 0.01, and *** p < 0.001, as compared with the ZIKV group without peptide treatment (ANOVA, N = 3).

ZIKV strain MR766 [2] = assay: Post-infection peptide treatment of ZIKV-infected human fetal astrocytes (RT-PCR and plaque-forming assay); conditions: human fetal astrocytes infected MOI 0.5 for 24 h, then peptide 10 µM for 24 h, N = 4; for Zika virions after post-infection treatment (plaque-forming assay): cell-free supernatants; for ZIKV RNA after post-infection treatment, compared with untreated ZIKV group: normalized to GAPDH
Protocol: Vero cells were plated into 12-well plates at 5 (10^5 cells/well the day before infection). On the day of infection, the monolayers of Vero cells were inoculated with 100 µL of 10-fold serial dilutions of viral stocks and incubated at 37 °C for 1 h. After viral inoculation, medium containing ZIKV particles was removed and 1 ml overlay containing 0.6% molecular biology grade agarose (Agarose Unlimited, Alachua, FL, USA) in Modified Eagle Medium (Gibco) with 2% FBS. Cells were maintained at 37°C in 5% CO2 for 4 days. On day 5, cells were fixed with 4% paraformaldehyde solution in PBS and stained with 1% crystal violet solution in 20% methanol in water. Viral plaques were photographed using a CanonScan 9950F scanner and each plaque was counted as a plaque-forming unit (PFU). Viral titer was calculated as PFU/[volume virus (mL) × (dilution factor)].
Total mRNA was isolated with TRIzol Reagent (Thermo Fisher Scientific) and RNeasy Mini Kit (QIAGEN Inc., Valencia, CA, USA) following the manufacturer’s recommendations. Two real-time RT-PCR methods were used for the current studies. First, SYBR Green-based RT-PCR assay was used to determine intracellular ZIKV RNA in Vero cells. For this assay, reverse transcription was performed using Verso cDNA synthesis Kit (Thermo Fisher Scientific) and 1 µg of total RNA in a 15-µL final volume. The RT-PCR analyses were performed using 7.5-µL SYBR Green PCR Master Mix (Thermo Fisher Scientific) with 0.5-µL cDNA, 1.5-µL H2O, 5.5-µL oligonucleotide primer pairs at 10 µM. Primers used were ZIKV RNA: forward sequence 5-[…]-3, reverse sequence 5-[…]-3; GAPDH: forward sequence 5-[…]-3, reverse sequence 5-GGCTGT […] GG-3. PCR program: 1, 50°C for 2 min; 2, 95°C for 2 min; 3, 95°C for 15 s; 4, specific annealing temperature for 15 s; 5, 72°C for 1 min. Steps 2–4 were repeated 40 times. All samples were amplified in triplicate for analysis. Relative ZIKV RNA levels were determined and standardized with a GAPDH internal control using comparative ΔΔCT method ([35]). Second, TaqMan-based RT-PCR assay was used to determine intracellular ZIKV RNA and other gene expressions in Figures 3–6 and extracellular ZIKV RNA in Figure 3. […] Relative ZIKV mRNA levels were determined and standardized with a GAPDH or 18-s rRNA endogenous control using comparative ΔΔCT method ([35]). All reference genes, including GAPDH, β-actin, and 18-s rRNA, detected identical changes of genes (Figure S1 in Supplementary Material). […] Quantitative genomic RNA from ZIKV (NR-1838DQ, ATCC) was used as a standard to calculate viral copies. […]
Figure 4 Antimicrobial peptides treatment post-infection is still effective in inhibiting Zika virus (ZIKV) infection. […] (B–D) At 24-h post-antimicrobial peptide treatment, RNA was isolated from cells and ZIKV RNA was determined through real-time RT-PCR. […]

ZIKV strain MR766 [3] = assay: ZIKV RNA at 2-h post-infection in pre-treated human fetal astrocytes (early infection / entry); conditions: astrocytes treated with AMPs 2 h at 37°C, then ZIKV MOI 0.5 for 2 h; normalized to 18-s rRNA; N = 3
Protocol: Total mRNA was isolated with TRIzol Reagent (Thermo Fisher Scientific) and RNeasy Mini Kit (QIAGEN Inc., Valencia, CA, USA) following the manufacturer’s recommendations. Two real-time RT-PCR methods were used for the current studies. First, SYBR Green-based RT-PCR assay was used to determine intracellular ZIKV RNA in Vero cells. For this assay, reverse transcription was performed using Verso cDNA synthesis Kit (Thermo Fisher Scientific) and 1 µg of total RNA in a 15-µL final volume. The RT-PCR analyses were performed using 7.5-µL SYBR Green PCR Master Mix (Thermo Fisher Scientific) with 0.5-µL cDNA, 1.5-µL H2O, 5.5-µL oligonucleotide primer pairs at 10 µM. […] Relative ZIKV RNA levels were determined and standardized with a GAPDH internal control using comparative ΔΔCT method ([35]). […] Relative ZIKV mRNA levels were determined and standardized with a GAPDH or 18-s rRNA endogenous control using comparative ΔΔCT method ([35]). All reference genes, including GAPDH, β-actin, and 18-s rRNA, detected identical changes of genes (Figure S1 in Supplementary Material). […] Quantitative genomic RNA from ZIKV (NR-1838DQ, ATCC) was used as a standard to calculate viral copies. […]
(A) Primary human fetal astrocytes were pre-incubated at 4°C for half an hour and then treated with antimicrobial peptides along with ZIKV infection at the MOI of 0.5 for 2 h. […] ZIKV RNA was determined through real-time RT-PCR.

Compound: CC[C@H](C)[C@H](NC(=O)[C@H](CCCCN)NC(=O)[C@H](CCCCN)NC(=O)[C@H](Cc1ccccc1)NC(=O)[C@H](CC(C)C)NC(=O)[C@H](CCCCN)NC(=O)[C@H](CCCCN)NC(=O)[C@H](Cc1ccccc1)NC(=O)[C@H](CCCCN)NC(=O)[C@H](CCCCN)NC(=O)[C@H](CCCNC(=N)N)NC(=O)[C@H](Cc1ccccc1)NC(=O)[C@H](CCCNC(=N)N)NC(=O)[C@H](CCCCN)NC(=O)[C@H](Cc1ccccc1)NC(=O)[C@H](CCCNC(=N)N)NC(=O)CN)C(=O)N[C@@H](CO)C(=O)O [BMAP-18] (H-GRFKRFRKKFKKLFKKIS-OH; N-terminus and C-terminus assumed)
- ZIKV virions (PFU/mL) in supernatants (ZIKV strain MR766 [1]): ZIKV virions were reduced
- Zika virions after post-infection treatment (plaque-forming assay) (ZIKV strain MR766 [2]): fewer virions
- ZIKV RNA after post-infection treatment, compared with untreated ZIKV group (ZIKV strain MR766 [2]): trended downward; however, the difference was not significant
- ZIKV RNA at 2-h post-infection compared with untreated ZIKV group (ZIKV strain MR766 [3]): significantly decreased ZIKV RNA

Compound: CC[C@H](C)[C@H](NC(=O)[C@H](CCCNC(=N)N)NC(=O)[C@H](CCC(N)=O)NC(=O)[C@@H](NC(=O)[C@@H](NC(=O)[C@H](CCCNC(=N)N)NC(=O)[C@H](CCCCN)NC(=O)[C@H](Cc1ccccc1)NC(=O)CN)[C@@H](C)CC)C(C)C)C(=O)N[C@@H](CCCCN)C(=O)N[C@@H](CC(=O)O)C(=O)N[C@@H](Cc1ccccc1)C(=O)N[C@@H](CC(C)C)C(=O)N[C@@H](CCCNC(=N)N)C(=O)N[C@@H](CC(N)=O)C(=O)N[C@@H](CC(C)C)C(=O)N[C@H](C(N)=O)C(C)C [GF-17] (H-GFKRIVQRIKDFLRNLV-NH2; N-terminus and C-terminus assumed)
- ZIKV virions (PFU/mL) in supernatants (ZIKV strain MR766 [1]): ZIKV virions were reduced
- Zika virions after post-infection treatment (plaque-forming assay) (ZIKV strain MR766 [2]): fewer virions
- ZIKV RNA after post-infection treatment, compared with untreated ZIKV group (ZIKV strain MR766 [2]): significantly decreased ZIKV RNA
- ZIKV RNA at 2-h post-infection compared with untreated ZIKV group (ZIKV strain MR766 [3]): significantly decreased ZIKV RNA
